In US20260250318A1, “COMPOSITIONS AND METHODS FOR CROSSING THE BLOOD BRAIN BARRIER” (VOYAGER THERAPEUTICS, INC., priority 2022, published 2026):

Legend:
Conditions in all cases: synthetic library passage 3, intravenous, relative to wild-type AAV9
brain [1] = assay: NGS fold enrichment of synthetic library (passage 3) in BALB/c mice, first cross-species screen; assay type: in vivo
In short: (§1)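 Passage-3 synthetic capsid library given intravenously […] to NHPs (2-4 years) and BALB/c or C57Bl/6 mice (n=3, 6-8 weeks). After e.g. 28 days, tissue RNA was RT-PCR amplified and NGS-sequenced; values are fold enrichment of each variant relative to wild-type AAV9.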

[2] = test system: brain, spinal cord, and DRG of the NHPs; assay: NGS fold enrichment of synthetic library (passage 3) in NHPs, first cross-species screen; assay type: in vivo, cynomolgus macaques (Macaca fascicularis)
In short: as §1

brain [3] = assay: NGS fold enrichment of synthetic library (passage 3) in C57Bl/6 mice, first cross-species screen; assay type: in vivo
In short: as §1

[4] = RNA from brain of BALB/c mice, NGS
[5] = RNA from spinal cord of NHPs, NGS
[6] = RNA from brain of C57Bl/6 mice, NGS

Sequence | Fold enrichment over AAV9 in the brain of Mice (BALB/c) (brain [1]; [4]) | Fold enrichment over AAV9 in the brain of NHPs ([2]; RNA from brain of NHPs, NGS) | Fold enrichment over AAV9 in the spinal cord of NHPs [2, 5] | Fold enrichment over AAV9 in the brain of Mice (C57Bl/6) (brain [3]; [6]) | Fold enrichment over AAV9 in the brain of Mice (BALB/c) (brain [1]; RNA NGS, brain of BALB/c mice) | Fold enrichment over AAV9 in the brain of NHPs ([2]; RNA NGS, brain of NHPs) | Fold enrichment over AAV9 in the spinal cord of NHPs ([2]; RNA NGS, spinal cord of NHPs) | Fold enrichment over AAV9 in the brain of Mice (C57Bl/6) (brain [3]; RNA NGS, brain of C57Bl/6 mice)
GSGQNQGLLSSPQT | 0.417 fold | 1.164 fold | 0.000 fold | 0.707 fold | – | – | – | –
GSGQNQQVGSTVRT | – | – | – | – | 0.614 fold | 1.124 fold | 2.040 fold | 0.918 fold
GKPAGGLSGQNQQT | – | – | – | – | 0.739 fold | 1.085 fold | 2.805 fold | 0.708 fold
GSSTLVTIGKNQQT | – | – | – | – | 0.819 fold | 1.592 fold | 4.316 fold | 0.917 fold
GDSSLRHSGQNQQT | – | – | – | – | 0.412 fold | 2.194 fold | 0.000 fold | 0.662 fold
GSGQNQHLSSFVQT | – | – | – | – | 0.364 fold | 1.013 fold | 0.110 fold | 1.090 fold
GSGQSMTLHLNQQT | – | – | – | – | 0.248 fold | 1.827 fold | 0.991 fold | 0.721 fold
GSGQRMADIGNQQT | 0.427 fold | 1.233 fold | 2.539 fold | 0.352 fold | – | – | – | –
GSLSHMESGQNQQT | – | – | – | – | 0.265 fold | 1.120 fold | 0.829 fold | 0.489 fold
GSRSQYDIGQNQQT | – | – | – | – | 0.193 fold | 1.706 fold | 0.112 fold | 0.528 fold
GSGLKWSTLQNQQT | – | – | – | – | 2.442 fold | 1.556 fold | 0.000 fold | 1.134 fold
GSNAQSAHGQNQQT | 0.245 fold | 1.371 fold | 0.888 fold | 0.976 fold | – | – | – | –
GRGGIPQSGQNQQT | – | – | – | – | 1.181 fold | 2.352 fold | 8.683 fold | 1.639 fold
GSGQNQQTMANGQR | 1.230 fold | 1.394 fold | 0.216 fold | 1.169 fold | – | – | – | –
GSEQTRQSGQNQQT | 0.900 fold | 1.321 fold | 0.514 fold | 0.734 fold | – | – | – | –
GSGQNQQQRDGTLT | 0.730 fold | 1.152 fold | 0.387 fold | 0.760 fold | – | – | – | –
GSGQNLGLLGAQQT | 0.226 fold | 1.161 fold | 1.458 fold | 0.524 fold | – | – | – | –
GSGQSHMATLNQQT | – | – | – | – | 0.504 fold | 2.657 fold | 0.724 fold | 1.173 fold
GSGQNQQHSSSHLT | – | – | – | – | 0.859 fold | 1.581 fold | 2.782 fold | 1.091 fold
GSGQNQQTAIYRNI | – | – | – | – | 1.437 fold | 1.854 fold | 2.207 fold | 0.818 fold
GSGAITHMPQNQQT | – | – | – | – | 0.411 fold | 1.695 fold | 1.681 fold | 0.647 fold
GSGQNGGSSNRQQT | – | – | – | – | 0.844 fold | 1.109 fold | 2.594 fold | 1.255 fold
GSSGSHQYGQNQQT | 0.794 fold | 1.155 fold | 0.000 fold | 1.129 fold | – | – | – | –
GDAGVRSSGQNQQT | – | – | – | – | 1.193 fold | 2.068 fold | 3.918 fold | 1.033 fold
GSGSQHSKAQNQQT | 0.916 fold | 1.168 fold | 0.312 fold | 0.638 fold | – | – | – | –
GSGQNQQTNLGHTT | 1.281 fold | 1.383 fold | 1.523 fold | 1.343 fold | – | – | – | –
